For one data set, the target named is T1, hAPJ (Homo sapiens, UniProt P35414).
T1 sequence (P35414 1-380): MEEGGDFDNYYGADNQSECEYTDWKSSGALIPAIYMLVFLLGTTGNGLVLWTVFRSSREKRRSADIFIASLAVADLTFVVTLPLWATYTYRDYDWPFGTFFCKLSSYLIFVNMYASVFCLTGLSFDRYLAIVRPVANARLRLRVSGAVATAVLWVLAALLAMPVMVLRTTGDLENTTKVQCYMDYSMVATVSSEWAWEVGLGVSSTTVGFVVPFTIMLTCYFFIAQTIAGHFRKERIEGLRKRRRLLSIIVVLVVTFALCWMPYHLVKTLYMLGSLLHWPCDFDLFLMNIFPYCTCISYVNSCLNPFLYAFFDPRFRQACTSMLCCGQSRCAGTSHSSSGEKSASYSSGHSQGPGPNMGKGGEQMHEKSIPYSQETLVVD
The experiment in a line: hAPJ Calcium Flux Assay. Type of data set: cell-based. The conditions noted are these: Chem-5 APJ stable cells, calcium flux stimulation; read-out: hAPJ Ca2+ Flux EC50. How it is done:
Chem-5 APJ stable cells (Millipore # HTS068C) were plated in 384-well format with 10,000 cells/well in 25 ul growth media, then grown 24 hours in a 37° C. tissue culture incubator. One hour before the assay, 25 ul/well FLIPR Calcium 4 dye (Molecular Devices R8142) with 2.5 mM probenecid was added, and cells were incubated one hour in a 37° C. tissue culture incubator. Peptides were solubilized in HBSS, HEPES & 0.1% BSA buffer, and serially-diluted 10-fold, from 50 uM to 5 pM, in triplicate. FLIPR Tetra was used to add peptide to the cells with dye (1:5, for final peptide concentrations ranging from 10 uM to 1 pM). FLIPR dye inside the cells emitted fluorescence after binding to calcium, while fluorescence from outside the cells was masked. […] Readings were done for 3 minutes total, beginning 10 seconds before the peptide addition. Maximum-minimum values were calculated and plotted for each peptide concentration, and GraphPad prism software was used to calculate EC50 values at the curve inflection points, for calcium flux stimulation by peptides.

Data set [1] in a line: Surrogate Activity-Based Plasma Stability Assay. Type of data set: in vitro ADME. The conditions noted are these: rat. From the text: Surrogate Activity-Based Plasma Stability Assay:
2) Calculate slope of value above and […]

Where two headings read alike, the source gives them in different places. Where a SMILES comes first, the peptide text is derived from it. Bridges are numbered along the chain shown (N, C = ends). [ ]: non-standard residue; d: D form. NMeF = CN[C@@H](Cc1ccccc1)C(=O)O; pGlu = O=C1CC[C@@H](C(=O)O)N1; d(hCys) = N[C@H](CCS)C(=O)O; dNle = CCCC[C@@H](N)C(=O)O; hCys = N[C@@H](CCS)C(=O)O; Nle = CCCC[C@H](N)C(=O)O

The term EC50 denotes the concentration giving half of the maximal effect.

In the case of `CCCC[C@H](NC(=O)[C@@H]1CCCN1C(=O)CNC(=O)[C@H](CCCCN)NC(=O)[C@@H]1CSSC[C@H](NC(=O)[C@@H]2CCCN2C(=O)[C@H](CCCNC(=N)N)NC(=O)[C@@H]2CCC(=O)N2)C(=O)N[C@@H](CC(C)C)C(=O)N[C@@H](CO)C(=O)N1)C(=O)N1CCC[C@H]1C(=O)N(C)[C@@H](Cc1ccccc1)C(=O)O` [Example 29, pE-R-P-C*-L-S-C*-K-G-P-Nle-P-(N-Me)F-OH] ([pGlu]RPCLSCKGP[Nle]P[NMeF]-OH; disulfide 4-7), the EC50 at hAPJ stood at 4.2 nM. In data set [1], this molecule registered a half-life of 705 min. For `CC(C)C[C@@H]1NC(=O)[C@@H](NC(=O)[C@@H]2CCCN2C(=O)[C@H](CCCNC(=N)N)NC(=O)[C@@H]2CCC(=O)N2)CCSSC[C@@H](C(=O)N[C@@H](CCCCN)C(=O)NCC(=O)N2CCC[C@H]2C(=O)N[C@H](Cc2ccccc2)C(=O)N[C@H](C)C(=O)N[C@H](Cc2ccccc2)C(=O)O)NC(=O)[C@H](CO)NC1=O` [Example 36, pE-R-P-hC*-L-S-C*-K-G-P-f-a-f-OH] ([pGlu]RP[hCys]LSCKGP[dF][dA][dF]-OH; disulfide 4-7), on hAPJ, the EC50 is 4.2 nM. Moreover, the half-life in data set [1] was 34 min. Regarding `CCCC[C@H](NC(=O)[C@@H]1CCCN1C(=O)CNC(=O)[C@H](CCCCN)NC(=O)[C@@H]1CCSSC[C@H](NC(C)=O)C(=O)N[C@@H](CCCNC(=N)N)C(=O)N2CCC[C@H]2C(=O)N[C@@H](CCCNC(=N)N)C(=O)N[C@@H](CC(C)C)C(=O)N[C@@H](CO)C(=O)N1)C(=O)N1CCC[C@H]1C(=O)N[C@@H](Cc1ccccc1)C(=O)O` [Example 6, Ac-C*-R-P-R-L-S-hC*-K-G-P-Nle-P-F-OH] (Ac-CRPRLS[hCys]KGP[Nle]PF-OH; disulfide 1-7), the EC50 on hAPJ was 21.4 nM. This molecule yielded a half-life in data set [1] of 5 min.

Turning to `CCCC[C@H](NC(=O)[C@@H]1CCCN1C(=O)CNC(=O)[C@H](CCCCN)NC(=O)[C@@H]1CSSC[C@H](NC(C)=O)C(=O)N[C@@H](CCCNC(=N)N)C(=O)N2CCC[C@H]2C(=O)N[C@@H](CCCNC(=N)N)C(=O)N[C@@H](CC(C)C)C(=O)N[C@@H](CO)C(=O)N1)C(=O)N1CCC[C@H]1C(N)=O` [Example 4, Ac-C*-R-P-R-L-S-C*-K-G-P-Nle-P-NH2] (Ac-CRPRLSCKGP[Nle]P-NH2; disulfide 1-7), the half-life in data set [1] was 506 min. `CCCC[C@H](NC(=O)[C@@H]1CCCN1C(=O)CNC(=O)[C@H](CCCCN)NC(=O)[C@@H]1CSSC[C@H](NC(C)=O)C(=O)N[C@@H](CCCNC(=N)N)C(=O)N2CCC[C@H]2C(=O)N[C@@H](CCCNC(=N)N)C(=O)N[C@@H](CC(C)C)C(=O)N[C@@H](CO)C(=O)N1)C(=O)N1CCC[C@H]1C(=O)N[C@@H](Cc1ccccc1)C(=O)O` [Example 1, Ac-C*-R-P-R-L-S-C*-K-G-P-Nle-P-F-OH] (Ac-CRPRLSCKGP[Nle]PF-OH; disulfide 1-7) yielded a half-life in data set [1] of 8 min. On to `CCCC[C@H](NC(=O)[C@@H]1CCCN1C(=O)CNC(=O)[C@H](CCCCN)NC(=O)[C@@H]1CSSC[C@@H](NC(C)=O)C(=O)N[C@@H](CCCNC(=N)N)C(=O)N2CCC[C@H]2C(=O)N[C@@H](CCCNC(=N)N)C(=O)N[C@@H](CC(C)C)C(=O)N[C@@H](CO)C(=O)N1)C(=O)N1CCC[C@H]1C(=O)N[C@@H](Cc1ccccc1)C(=O)O` [Example 12, Ac-c*-R-P-R-L-S-C*-K-G-P-Nle-P-F-OH] (Ac-[dC]RPRLSCKGP[Nle]PF-OH; disulfide 1-7), for which, at hAPJ, the 50% effective concentration (EC50) amounted to 21.4 nM. The molecule also displayed a half-life in data set [1] of 10 min. `CCCC[C@H](NC(=O)[C@@H]1CCCN1C(=O)CNC(=O)[C@H](CCCCN)NC(=O)[C@@H]1CSSC[C@H](NC(C)=O)C(=O)N[C@@H](CCCNC(=N)N)C(=O)N2CCC[C@H]2C(=O)N[C@@H](CCCNC(=N)N)C(=O)N[C@@H](CC(C)C)C(=O)N[C@@H](CO)C(=O)N1)C(=O)N1CCC[C@H]1C(=O)N[C@H](Cc1ccccc1)C(=O)O` [Example 10, Ac-C*-R-P-R-L-S-C*-K-G-P-Nle-P-f-OH] (Ac-CRPRLSCKGP[Nle]P[dF]-OH; disulfide 1-7) showed a half-life in data set [1] of 57.4 min. As for `CCCC[C@@H](NC(=O)[C@@H]1CCCN1C(=O)CNC(=O)[C@H](CCCCN)NC(=O)[C@H]1CCSSC[C@@H](NC(=O)[C@@H]2CCCN2C(=O)[C@H](CCCNC(=N)N)NC(=O)[C@@H]2CCC(=O)N2)C(=O)N[C@@H](CC(C)C)C(=O)N[C@@H](CO)C(=O)N1)C(=O)N[C@H](C)C(=O)N[C@H](Cc1ccc(O)cc1)C(=O)O` [Example 37, pE-R-P-c*-L-S-(D-hC)*-K-G-P-(D-Nle)-a-y-OH] ([pGlu]RP[dC]LS[d(hCys)]KGP[dNle][dA][dY]-OH; disulfide 4-7), in data set [1], the half-life came to 47 min. Molecule `CCCC[C@H](NC(=O)[C@@H]1CCCN1C(=O)CNC(=O)[C@H](CCCCN)NC(=O)[C@@H]1CCSSCC[C@@H](NC(C)=O)C(=O)N[C@@H](CCCNC(=N)N)C(=O)N2CCC[C@H]2C(=O)N[C@@H](CCCNC(=N)N)C(=O)N[C@@H](CC(C)C)C(=O)N[C@@H](CO)C(=O)N1)C(=O)N1CCC[C@H]1C(=O)N[C@@H](Cc1ccccc1)C(=O)O` [Example 16, Ac-(D-hC)*-R-P-R-L-S-hC*-K-G-P-Nle-P-F-OH] (Ac-[d(hCys)]RPRLS[hCys]KGP[Nle]PF-OH; disulfide 1-7) displayed a half-life in data set [1] of 7 min.

In the case of `CCCC[C@@H](NC(=O)[C@@H]1CCCN1C(=O)CNC(=O)[C@H](CCCCN)NC(=O)[C@@H]1CSSC[C@H](NC(=O)[C@@H]2CCCN2C(=O)[C@H](CCCNC(=N)N)NC(=O)[C@@H]2CCC(=O)N2)C(=O)N[C@@H](CC(C)C)C(=O)N[C@@H](CO)C(=O)N1)C(=O)N[C@H](Cc1ccccc1)C(=O)O` [Example 34, pE-R-P-C*-L-S-C*-K-G-P-(D-Nle)-f-OH] ([pGlu]RPCLSCKGP[dNle][dF]-OH; disulfide 4-7), the half-life in data set [1] was greater than 1000 min.

For the molecule `C=CCCCCCCCCCC(CCCCCCCCCCC(=O)O)(C(=O)O)C(=O)NCCOCCOCCOCCOCCOCCOCCOCCOCCOCCOCCOCCOCCOCCOCCOCCOCCOCCOCCOCCOCCOCCOCCOCCn1nnc2c1CC[C@H]1[C@@H](CC2)[C@H]1COC(=O)NCCCC[C@H](NC(=O)[C@@H]1CSSC[C@H](NC(=O)[C@@H]2CCCN2C(=O)[C@H](CCCNC(=N)N)NC(=O)[C@@H]2CCC(=O)N2)C(=O)N[C@@H](CC(C)C)C(=O)N[C@@H](CO)C(=O)N1)C(=O)NCC(=O)N1CCC[C@H]1C(=O)N[C@H](CCCC)C(=O)NCCc1ccccc1` (some centres unmarked) [Example 40], the half-life in data set [1] (read-out: Surrogate activity-based Plasma stability t½) was greater than 1000 min.

Molecule `CCCC[C@H](NC(=O)[C@@H]1CCCN1C(=O)CNC(=O)[C@H](CCCCN)NC(=O)[C@@H]1CSSC[C@H](NC(C)=O)C(=O)N[C@@H](CCCNC(=N)N)C(=O)N2CCC[C@H]2C(=O)N[C@@H](CCCNC(=N)N)C(=O)N[C@@H](CC(C)C)C(=O)N[C@@H](CO)C(=O)N1)C(=O)N1CCC[C@H]1C(=O)N[C@H](C)C(=O)O` [Example 8, Ac-C*-R-P-R-L-S-C*-K-G-P-Nle-P-a-OH] (Ac-CRPRLSCKGP[Nle]P[dA]-OH; disulfide 1-7) registered a half-life in data set [1] of 662 min. The molecule `CCCC[C@@H](NC(=O)[C@@H]1CCCN1C(=O)CNC(=O)[C@H](Cc1ccccc1)NC(=O)[C@@H]1CSSC[C@H](NC(=O)[C@H](CCCNC(=N)N)NC(=O)[C@@H]2CCC(=O)N2)C(=O)N[C@@H](CCCNC(=N)N)C(=O)N[C@@H](CC(C)C)C(=O)N[C@@H](CO)C(=O)N1)C(=O)N[C@H](C)C(=O)N[C@H](Cc1ccccc1)C(=O)O` [Example 22, pE-R-C*-R-L-S-C*-F-G-P-(D-Nle)-a-f-OH] ([pGlu]RCRLSCFGP[dNle][dA][dF]-OH; disulfide 3-7) registered a half-life in data set [1] greater than 1000 min. With `CCCC[C@H](NC(=O)[C@@H]1CCCN1C(=O)CNC(=O)[C@H](CCCCN)NC(=O)[C@@H]1CCSSC[C@@H](NC(C)=O)C(=O)N[C@@H](CCCNC(=N)N)C(=O)N2CCC[C@H]2C(=O)N[C@@H](CCCNC(=N)N)C(=O)N[C@@H](CC(C)C)C(=O)N[C@@H](CO)C(=O)N1)C(=O)N1CCC[C@H]1C(=O)N[C@@H](Cc1ccccc1)C(=O)O` [Example 13, Ac-c*-R-P-R-L-S-hC*-K-G-P-Nle-P-F-OH] (Ac-[dC]RPRLS[hCys]KGP[Nle]PF-OH; disulfide 1-7), in data set [1], the half-life came out at 10 min. In data set [1], `CCCC[C@H](NC(=O)[C@@H]1CCCN1C(=O)CNC(=O)[C@H](CCCCN)NC(=O)[C@@H]1CSSC[C@H](NC(=O)[C@@H]2CCCN2C(=O)[C@H](CCCNC(=N)N)NC(=O)[C@@H]2CCC(=O)N2)C(=O)N[C@@H](CC(C)C)C(=O)N[C@@H](CO)C(=O)N1)C(=O)N1CCC[C@H]1C(=O)N[C@@H](Cc1ccccc1)C(=O)O` [Example 28, pE-R-P-C*-L-S-C*-K-G-P-Nle-P-F-OH] ([pGlu]RPCLSCKGP[Nle]PF-OH; disulfide 4-7) had a half-life of 13 min.

Molecule `CCCC[C@H](NC(=O)[C@@H]1CCCN1C(=O)CNC(=O)[C@H](CCCCN)NC(=O)[C@@H]1CSSC[C@H](NC(=O)[C@@H]2CCCN2C(=O)[C@H](CCCNC(=N)N)NC(=O)[C@@H]2CCC(=O)N2)C(=O)N[C@@H](CC(C)C)C(=O)N[C@@H](CO)C(=O)N1)C(=O)N1CCC[C@H]1C(=O)NCCc1ccccc1` [Example 30, pE-R-P-C*-L-S-C*-K-G-P-Nle-P-NH(Phenethyl)] yielded a half-life in data set [1] of 661 min.
